Where two headings read alike, the source gives them in different places.
Tests used:
Rhesus PDE2A3 = Rhesus PDE2A3 (Macaca mulatta, UniProt B3VTJ2); test: PDE2 fluorescence polarization (IMAP FP) inhibition assay, rhesus enzyme; assay type: biochemical, rhesus macaque
Method in brief: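 IMAP FP (mP from parallel and perpendicular fluorescence against substrate-only control) was read ≥1 h after adding binding reagent. The preceding 60 min room-temperature reaction contained FAM-cAMP (50 nM) and cGMP (1 uM) in pH 7.2 Tris buffer with MgCl2 and DTT. Enzyme was supernatant of sonicated AD293 cells expressing rhesus PDE2A3; compounds were 3-fold titrated, DMSO 1% final.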

human PDE2A1 = human PDE2A1 (Homo sapiens (Human), UniProt O00408); test: IMAP FP PDE selectivity panel, human PDE2A1; assay type: biochemical
Method in brief: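 IMAP FP format: substrate 50 nM FAM-cAMP plus 1000 nM cGMP, enzyme (insect-cell GST-tagged human PDE2A1) at ~20% conversion, 60 min reaction at room temperature. Apparent inhibition constants calculated from parallel/perpendicular fluorescence with KM 10,000 nM.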

[1] = Rhesus PDE2, Lab A, read-out: Rhesus PDE2 Ki (nM) - Lab A
[2] = Human PDE2, Lab A, read-out: Human PDE2 Ki (nM) - Lab A
[3] = Rhesus PDE2, Lab B, read-out: Rhesus PDE2 Ki (nM) - Lab B
[4] = Human PDE2, Lab B, read-out: Human PDE2 Ki (nM) - Lab B

Chain of human PDE2A1 (O00408 other isoform, or with tags, fused parts or gaps): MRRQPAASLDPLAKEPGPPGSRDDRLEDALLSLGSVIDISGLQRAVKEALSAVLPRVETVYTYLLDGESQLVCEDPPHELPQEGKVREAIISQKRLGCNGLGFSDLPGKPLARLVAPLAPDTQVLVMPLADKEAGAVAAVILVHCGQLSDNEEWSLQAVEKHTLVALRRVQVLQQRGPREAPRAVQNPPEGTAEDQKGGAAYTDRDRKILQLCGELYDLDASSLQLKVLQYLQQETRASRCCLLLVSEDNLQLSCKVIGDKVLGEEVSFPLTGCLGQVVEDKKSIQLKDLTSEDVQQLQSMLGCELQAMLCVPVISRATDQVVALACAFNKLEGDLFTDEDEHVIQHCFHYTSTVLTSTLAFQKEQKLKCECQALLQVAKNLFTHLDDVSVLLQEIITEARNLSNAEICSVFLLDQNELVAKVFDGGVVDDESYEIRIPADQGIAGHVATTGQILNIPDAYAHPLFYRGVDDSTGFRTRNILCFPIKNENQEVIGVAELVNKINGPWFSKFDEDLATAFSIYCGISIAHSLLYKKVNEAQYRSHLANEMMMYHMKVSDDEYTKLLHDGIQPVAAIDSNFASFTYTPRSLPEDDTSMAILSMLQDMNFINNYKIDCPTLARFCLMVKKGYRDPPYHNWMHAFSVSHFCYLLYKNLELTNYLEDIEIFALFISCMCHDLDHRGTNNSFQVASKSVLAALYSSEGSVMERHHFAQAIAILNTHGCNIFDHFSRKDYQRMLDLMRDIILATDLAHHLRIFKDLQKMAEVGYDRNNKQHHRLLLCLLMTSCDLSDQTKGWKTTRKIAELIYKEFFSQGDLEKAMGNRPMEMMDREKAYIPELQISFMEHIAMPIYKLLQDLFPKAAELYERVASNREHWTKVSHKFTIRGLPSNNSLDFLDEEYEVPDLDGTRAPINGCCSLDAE
Chain of Rhesus PDE2A3 (B3VTJ2 1-941): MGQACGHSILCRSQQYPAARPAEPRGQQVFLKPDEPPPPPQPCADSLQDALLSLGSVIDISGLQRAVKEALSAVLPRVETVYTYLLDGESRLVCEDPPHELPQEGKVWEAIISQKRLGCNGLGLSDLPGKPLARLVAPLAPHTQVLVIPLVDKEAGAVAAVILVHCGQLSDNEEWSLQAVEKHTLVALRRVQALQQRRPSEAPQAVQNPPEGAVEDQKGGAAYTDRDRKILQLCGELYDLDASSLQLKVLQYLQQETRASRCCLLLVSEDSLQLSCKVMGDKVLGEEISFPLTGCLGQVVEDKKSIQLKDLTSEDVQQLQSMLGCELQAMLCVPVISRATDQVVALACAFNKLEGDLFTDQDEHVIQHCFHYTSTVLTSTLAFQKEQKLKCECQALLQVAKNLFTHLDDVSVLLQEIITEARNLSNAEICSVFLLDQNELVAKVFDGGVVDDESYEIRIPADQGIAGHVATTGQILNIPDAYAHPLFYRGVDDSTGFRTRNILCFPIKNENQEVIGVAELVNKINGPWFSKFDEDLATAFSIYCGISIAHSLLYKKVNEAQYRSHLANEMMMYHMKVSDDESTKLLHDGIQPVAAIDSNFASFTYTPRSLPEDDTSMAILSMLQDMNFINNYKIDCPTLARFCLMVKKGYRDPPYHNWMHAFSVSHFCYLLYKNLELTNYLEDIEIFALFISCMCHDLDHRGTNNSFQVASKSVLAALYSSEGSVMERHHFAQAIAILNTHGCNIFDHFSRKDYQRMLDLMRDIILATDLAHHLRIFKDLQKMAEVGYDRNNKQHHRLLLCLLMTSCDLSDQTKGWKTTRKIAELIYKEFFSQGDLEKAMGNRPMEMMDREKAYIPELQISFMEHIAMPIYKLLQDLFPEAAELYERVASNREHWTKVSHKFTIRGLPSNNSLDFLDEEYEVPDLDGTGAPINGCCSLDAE

Compound	Ki (Rhesus PDE2A3; [1]) [nM]	Ki (human PDE2A1; [2]) [nM]	Ki (Rhesus PDE2A3; [3]) [nM]	Ki (human PDE2A1; [4]) [nM]
Cc1nc(C(=O)NC(C)(C)c2ccc(C(F)(F)F)cc2Cl)cc(=O)[nH]1 [Example 593, N-{1-[2-chloro-4-(trifluoromethyl)phenyl]-1-methylethyl}-2-methyl-6-oxo-1,6-dihydropyrimidine-4-carboxamide]	–	–	11	10
CC(C)(NC(=O)c1cc(=O)[nH]c(-c2ccccc2)n1)c1ccc(OC(F)(F)F)c(F)c1 [Example 161, N-{1-[3-fluoro-4-(trifluoromethoxy)phenyl]-1-methylethyl}-6-oxo-2-phenyl-1,6-dihydropyrimidine-4-carboxamide]	88	60	–	–
COCc1nc(C(=O)N[C@H](C)c2ccc(C(C)C)cc2)cc(=O)[nH]1 [Example 122, 2-(methoxymethyl)-N-{(1R)-1-[4-(1-methylethyl)phenyl]ethyl}-6-oxo-1,6-dihydropyrimidine-4-carboxamide]	152	38	–	–
Cc1nc(C(=O)NC(CO)c2ccc(C(F)(F)F)cc2)cc(=O)[nH]1 (single isomer, unassigned) [Example 312, (R)- or (S)-N-{2-hydroxy-1-[4-(trifluoromethyl)phenyl]ethyl}-2-methyl-6-oxo-1,6-dihydropyrimidine-4-carboxamide]	71	41	–	52
Cc1nc(C(=O)NC2(c3ccc(SC(F)(F)F)cc3)CCC2)cc(=O)[nH]1 [Example 49, 2-methyl-6-oxo-N-(1-{4-[(trifluoromethyl)sulfanyl]phenyl}cyclobutyl)-1,6-dihydropyrimidine-4-carboxamide]	79	45	–	–
Cc1nc(C(=O)N[C@H](C)c2ccc(OC(F)(F)F)cc2F)cc(=O)[nH]1 [Example 21, N-{(1R)-1-[2-fluoro-4-(trifluoromethoxy)phenyl]ethyl}-2-methyl-6-oxo-1,6-dihydropyrimidine-4-carboxamide]	46	98	–	–
C[C@@H](NC(=O)c1cc(=O)[nH]c(C2CC2)n1)c1ccc(C(F)(F)F)cc1F [Example 237, 2-cyclopropyl-N-{(1R)-1-[2-fluoro-4-(trifluoromethyl)phenyl]ethyl}-6-oxo-1,6-dihydropyrimidine-4-carboxamide]	61	35	–	–
CC[C@@H](NC(=O)c1cc(=O)[nH]c(COC)n1)c1ccc(OC(F)(F)F)cc1 [Example 119, 2-(methoxymethyl)-6-oxo-N-{(1R)-1-[4-(trifluoromethoxy)phenyl]propyl}-1,6-dihydropyrimidine-4-carboxamide]	74	17	53	–
COc1ccc(C(C)(C)c2nc(C(=O)N[C@@H](c3ccc(OC(F)(F)F)c(F)c3)C(C)(C)C)cc(=O)[nH]2)cc1 [Example 487, N-{(1R)-1-[3-fluoro-4-(trifluoromethoxy)phenyl]-2,2-dimethylpropyl}-2-[1-(4-methoxyphenyl)-1-methylethyl]-6-oxo-1,6-dihydropyrimidine-4-carboxamide]	–	–	61	63
Cc1nc(C(=O)N[C@H](C)c2ccc(C3(C)CC3)cc2)cc(=O)[nH]1 [Example 530, 2-methyl-N-{(1R)-1-[4-(1-methylcyclopropyl)phenyl]ethyl}-6-oxo-1,6-dihydropyrimidine-4-carboxamide]	–	–	47	28
CSCC(NC(=O)c1cc(=O)[nH]c(C)n1)c1ccc(C(F)(F)F)cc1 (stereo not drawn) [Example 131, 2-methyl-N-{2-(methylsulfanyl)-1-[4-(trifluoromethyl)phenyl]ethyl}-6-oxo-1,6-dihydropyrimidine-4-carboxamide]	170	123	–	–
CC[C@@H](NC(=O)c1cc(=O)[nH]c(Cc2ccc(OC)c(F)c2)n1)c1ccc(OC(F)(F)F)cc1 [Example 529, 2-(3-fluoro-4-methoxybenzyl)-6-oxo-N-{(1R)-1-[4-(trifluoromethoxy)phenyl]propyl}-1,6-dihydropyrimidine-4-carboxamide]	–	–	2.2	2
CC(C)(NC(=O)c1cc(=O)[nH]c(-c2ccccc2)n1)c1ccccc1Br [Example 373, N-[1-(2-bromophenyl)-1-methylethyl]-6-oxo-2-phenyl-1,6-dihydropyrimidine-4-carboxamide]	155	–	225	183
Cc1nc(C(=O)N[C@H](C)c2ccc(C(F)(F)F)cc2F)cc(=O)[nH]1 [Example 19, N-{(1R)-1-[2-fluoro-4-(trifluoromethyl)phenyl]ethyl}-2-methyl-6-oxo-1,6-dihydropyrimidine-4-carboxamide]	96	81	–	–
Cc1nc(C(=O)N[C@@H](c2ccc(OC(F)F)cc2)C(C)(C)C)cc(=O)[nH]1 [Example 62, (R)-N-(1-(4-(difluoromethoxy)phenyl)-2,2-dimethylpropyl)-2-methyl-6-oxo-1,6-dihydropyrimidine-4-carboxamide]	–	–	9.8	8.3
Cc1nc(C(=O)NC(C)(C)c2ccc(OC(F)(F)F)cc2)cc(=O)[nH]1 [Example 273, 2-methyl-N-{1-methyl-1-[4-(trifluoromethoxy)phenyl]ethyl}-1,6-oxo-1,6-dihydropyrimidine-4-carboxamide]	304	278	–	–
CC(C)(NC(=O)c1cc(=O)[nH]c(-c2ncccn2)n1)c1ccc(C(F)(F)F)c(F)c1 [Example 82, N-{1-[3-fluoro-4-(trifluoromethyl)phenyl]-1-methylethyl}-6-oxo-1,6-dihydro-2,2′-bipyrimidine-4-carboxamide]	153	82	–	–
Cc1nc(C(=O)N[C@@H](c2ccc(C(C)(C)C)cc2)C2(C)CC2)cc(=O)[nH]1 [Example 614, N-[(R)-(4-tert-butylphenyl)(1-methylcyclopropyl)methyl]-2-methyl-6-oxo-1,6-dihydropyrimidine-4-carboxamide]	–	–	20	17

The remaining compounds from weak to strong by Ki (Rhesus PDE2A3; [1]), led by results:

Ki (Rhesus PDE2A3; [1]) [nM]	Ki (human PDE2A1; [2]) [nM]	Ki (Rhesus PDE2A3; [3]) [nM]	Ki (human PDE2A1; [4]) [nM]	Compound
29	15	–	–	C[C@@H](NC(=O)c1cc(=O)[nH]c(-c2ccccc2)n1)c1ccc(C(F)(F)F)cc1F [Example 150, N-{(1R)-1-[2-fluoro-4-(trifluoromethyl)phenyl]ethyl}-6-oxo-2-phenyl-1,6-dihydropyrimidine-4-carboxamide]
25	11	–	–	COc1cc(OC(F)(F)F)ccc1C(C)NC(=O)c1cc(=O)[nH]c(C2CC2)n1 (stereo not drawn) [Example 230, 2-cyclopropyl-N-{1-[2-methoxy-4-(trifluoromethoxy)phenyl]ethyl}-6-oxo-1,6-dihydropyrimidine-4-carboxamide]
23	–	17	25	O=C(NC1(c2ccc(OC(F)(F)F)c(F)c2)CC1)c1cc(=O)[nH]c(-c2ncccn2)n1 [Example 81, N-{1-[3-fluoro-4-(trifluoromethoxy)phenyl]cyclopropyl}-6-oxo-1,6-dihydro-2,2′-bipyrimidine-4-carboxamide]
21	20	–	–	C[C@@H](NC(=O)c1cc(=O)[nH]c(Cc2ccccc2)n1)c1ccc(C(F)(F)F)cc1 [Example 133, 2-benzyl-6-oxo-N-{(1R)-1-[4-(trifluoromethyl)phenyl]ethyl}-1,6-dihydropyrimidine-4-carboxamide]
14	8.8	–	–	Cc1nc(C(=O)N[C@@H](c2ccc(C(F)(F)F)c(F)c2)C(C)C)cc(=O)[nH]1 [Example 240, N-{(1R)-1-[3-fluoro-4-(trifluoromethyl)phenyl]-2-methylpropyl}-2-methyl-6-oxo-1,6-dihydropyrimidine-4-carboxamide]
12	5.6	–	–	CC[C@@H](NC(=O)c1cc(=O)[nH]c(-c2ncccn2)n1)c1ccc(OC(F)(F)F)cc1 [Example 106, 6-oxo-N-{(1R)-1-[4-(trifluoromethoxy)phenyl]propyl}-1,6-dihydro-2,2′-bipyrimidine-4-carboxamide]
5.5	3.4	–	–	C[C@@H](NC(=O)c1cc(=O)[nH]c(-c2ncccn2)n1)c1ccc(OC(F)(F)F)c(F)c1 [Example 103, N-{(1R)-1-[3-fluoro-4-(trifluoromethoxy)phenyl]ethyl}-6-oxo-1,6-dihydro-2,2′-bipyrimidine-4-carboxamide]
4.4	3.5	–	–	C[C@@H](NC(=O)c1cc(=O)[nH]c(C2CC2)n1)c1ccc(SC(F)(F)F)cc1 [Example 15, (R)-2-cyclopropyl-6-oxo-N-(1-(4-((trifluoromethyl)thio)phenyl)ethyl)-1,6-dihydro pyrimidine-4-carboxamide]
3	–	–	5.6	C[C@@H](NC(=O)c1cc(=O)[nH]c(-c2ccccc2)n1)c1ccc(C2CC2)cc1 [Example 423, N-[(1R)-1-(4-cyclopropylphenyl)ethyl]-6-oxo-2-phenyl-1,6-dihydropyrimidine-4-carboxamide]
2.6	1.5	–	–	C[C@@H](NC(=O)c1cc(=O)[nH]c(-c2ccccc2)n1)c1ccc(OC(F)(F)F)c(F)c1 [Example 154, N-{(1R)-1-[3-fluoro-4-(trifluoromethoxy)phenyl]ethyl}-6-oxo-2-phenyl-1,6-dihydropyrimidine-4-carboxamide]
2	–	4	3.6	CC(C)[C@@H](NC(=O)c1cc(=O)[nH]c(C2CC2)n1)c1ccc(C(F)(F)F)c(F)c1 [Example 251, 2-cyclopropyl-N-{(1R)-1-[3-fluoro-4-(trifluoromethyl)phenyl]-2-methylpropyl}-6-oxo-1,6-dihydropyrimidine-4-carboxamide]

Reference: patent publication US9815796B2 (Merck Sharp & Dohme Corp., priority 2013, dated 2017)
